From patent US9783539B2, “Indoloquinolone compounds as anaplastic lymphoma kinase (ALK) inhibitors” (Jiangsu Ascentage Biomed Development Inc., priority 2014, dated 2017) come the findings set out here.

“And” between values parts separate entries of the source, which are not always exact repeats. Identical values can stand only once. Like-named read-outs stand apart in the source and are kept apart here.

Data set [1] deals with Kappas-299 cells containing NPM-ALK fusion protein. The data set is described as follows: 4-day cell viability assay (CellTiter-Glo), Kappas-299. The class given is cell-based. The following applies: inhibition of cell growth, 4 days, multiple values from independent experiments. As to the method: The effect of compounds on cell viability was determined in a 4-day proliferation assay. Cells were maintained in RPMI1640 culture medium with 10% FBS at 37° C. and an atmosphere of 5% CO2. […] Cells were seeded in 96-well plates at a density of 3,000-10,000 cells/well in 75 μl of culture medium. Compounds were serially diluted in the appropriate medium, and 75 μl of the diluted compounds were added to the appropriate wells of the cell plate. After the addition of compounds, the cells were incubated at 37° C. in an atmosphere of 5% CO2 for 4 days. Cell viability was determined using the CellTiter-Glo® Luminescent Cell Viability Assay Kit (Promega, Madison, Wis.) (for KARPAS-299 cells) or WST (2-(2-methoxy-4-nitrophenyl)-3-(4-nitrophenyl)-5-(2,4-disulfophenyl)-2H-tetrazolium, monosodium salt) Cell Counting-8 Kit (Dojindo Molecular Technologies, Inc., Rockville, Md.) (for H3122 cells) according to the manufacturers' instructions.
For CellTiter-Glo assay, 100 μl of CellTiter-Glo® Reagent was added to each well, and then the plates were incubated at room temperature for 10-20 minutes. The luminescent signal was measured using a Tecan Infinite M1000 multimode microplate reader (Tecan, Morrisville, N.C.). The readings were normalized to the DMSO-treated cells and the IC50 was calculated by nonlinear regression analysis using the GraphPad Prism 5 software.
Cells were treated for four days and cell growth was determined using a CellTiter-Glo assay.

The target of data set [2] is wild-type human ALK protein (cytoplasmic domain, amino acid 1058-1620, GST-fusion) (Homo sapiens, UniProt Q9UM73). Kind of data set: biochemical. The conditions noted are these: ALK IC50, wild-type ALK; 100 μM ATP.
Procedure: Kinase activities of all enzymes were assessed using a Lance TR-FRET assay kit from Perkin Elmer Life Sciences (Waltham, Mass.). 2.5 μL of compound solution and 5 μL of protein solution were added into a black low volume 384 well microtiter plate which was incubated for 15 minutes with gentle shaking at room temperature, followed by adding 2.5 μL of fluorescently labeled peptide substrate (Ulight-[sequence]) and ATP mixture solution. The kinase reaction was performed in 50 mM HEPES (pH 7.5) with 1 mM EGTA, 1 mM MgCl2, and 2 mM DTT, 0.01% Tween-20 added right before the assay. […] The reaction was allowed to perform for 90 minutes in dark with gentle shaking at room temperature after which 10 μL of 20 mM EDTA and 2 nM Eu-W1024 anti-phosphotyrosine antibody (PT66) mixture solution in the detection buffer from the manufacturer was added to terminate the reaction and detect the phosphorylation of the peptide substrate. Final mixture was incubated in the dark for 1 hour before the plate was read on a Tecan Infinite M-1000 multi-mode plate reader (Tecan, Durham N.C.) with an excitation wavelength of 320 nm.
Data set [3] can be described thus: Pharmacokinetic parameters in SD rats, IV and PO. The following applies: Sprague-Dawley (SD), rat, in vivo; for bioavailability: po, read-out: Oral Bioavailability (F). Also on record: AUC(0-t): concentration or dose not given beside the values. From the text: The pharmacokinetic (PK) parameters in SD rats for selected compounds with intravenous (IV) and oral (PO) administrations are provided in the following table (Table 5).

The mark [4] stands for this setting: intravenous, read-out: AUC0-t IV.
Where [5] appears, read: intravenous, read-out: t1/2 IV (converted).
The mark [6] stands for this setting: oral, read-out: t1/2 PO (converted).

Chain of wild-type human ALK protein (cytoplasmic domain, amino acid 1058-1620, GST-fusion) (Q9UM73 1058-1620): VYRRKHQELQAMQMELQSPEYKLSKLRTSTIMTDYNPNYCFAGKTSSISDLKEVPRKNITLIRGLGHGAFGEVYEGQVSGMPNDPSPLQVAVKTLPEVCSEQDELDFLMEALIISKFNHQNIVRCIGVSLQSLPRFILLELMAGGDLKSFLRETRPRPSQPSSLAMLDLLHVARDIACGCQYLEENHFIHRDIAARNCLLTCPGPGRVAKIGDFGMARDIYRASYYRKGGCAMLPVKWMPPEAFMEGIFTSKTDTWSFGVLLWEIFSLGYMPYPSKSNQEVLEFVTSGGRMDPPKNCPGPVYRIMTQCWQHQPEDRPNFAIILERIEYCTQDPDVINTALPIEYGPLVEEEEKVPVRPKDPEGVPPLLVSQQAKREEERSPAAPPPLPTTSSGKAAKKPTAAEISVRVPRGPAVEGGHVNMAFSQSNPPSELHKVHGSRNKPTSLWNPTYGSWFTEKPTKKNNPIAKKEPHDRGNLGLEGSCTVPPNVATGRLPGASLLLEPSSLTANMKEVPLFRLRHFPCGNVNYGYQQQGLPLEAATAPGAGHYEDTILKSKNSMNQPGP

Turning to `CCc1cc2c(=O)c3c4ccc(C#N)cc4[nH]c3n(C(C)C)c2cc1N1CCNCC1` [ALK-81, 2-Ethyl-5-isopropyl-11-oxo-3-(piperazin-1-yl)-6,11-dihydro-5H-indolo[2,3-b]quinoline-8-carbonitrile], the IC50 in data set [1] (NPM-ALK, 96 h) came out at 440 nM; in data set [2], 0.1 nM.
In the same order, the values of `CCc1cc2c(=O)c3c4ccc(C#N)cc4[nH]c3n(C(C)C)c2cc1N1CCOCC1` [ALK-82, 2-Ethyl-5-isopropyl-3-morpholino-11-oxo-6,11-dihydro-5H-indolo[2,3-b]quinoline-8-carbonitrile] are 46 nM and 2.3 nM.
In the same order, the values of `CCC(CC)n1c2cc(N3CCN(C)CC3)c(OC)cc2c(=O)c2c3ccc(C#N)cc3[nH]c21` [ALK-40, 2-Methoxy-3-(4-methylpiperazin-1-yl)-11-oxo-5-(pentan-3-yl)-6,11-dihydro-5H-indolo[2,3-b]quinoline-8-carbonitrile] are 415 nM and 29.7 nM.
Consider `CCOc1cc2c(=O)c3c4ccc(C#N)cc4[nH]c3n(C3CCCC3)c2cc1N1CCN(C)CC1` [ALK-54, 5-Cyclopentyl-2-ethoxy-3-(4-methylpiperazin-1-yl)-11-oxo-6,11-dihydro-5H-indolo[2,3-b]quinoline-8-carbonitrile], for which the IC50 worked out at 63 nM in data set [1] (NPM-ALK, 96 h) and 24.7 nM in data set [2].
`COc1cc2c(=O)c3c4ccc(C#N)cc4[nH]c3n(C)c2cc1N1CCN(C)CC1` [ALK-23, 2-Methoxy-5-methyl-3-(4-methylpiperazin-1-yl)-11-oxo-6,11-dihydro-5H-indolo[2,3-b]quinoline-8-carbonitrile] came in with an IC50 in data set [2] of 309 nM.
On to `COc1cc2c(=O)c3c4ccc(C#N)cc4[nH]c3n(C(C)C)c2c(F)c1C1CCN(C)CC1` [CJ-2212, 4-Fluoro-5-isopropyl-2-methoxy-3-(1-methylpiperidin-4-yl)-11-oxo-6,11-dihydro-5H-indolo[2,3-b]quinoline-8-carbonitrile], for which the AUC(0-t) in data set [3] (setting [4]) came out at 574 ng·h/mL; in data set [3] (oral, read-out: AUC0-t PO) it was 2060 ng·h/mL. Further, the Cmax was determined as 169 ng/mL in data set [3] (intravenous, read-out: Cmax IV) and 208 ng/mL in data set [3] (oral, read-out: Cmax PO). Besides, the Tmax was determined as 0.083 h in data set [3] (intravenous, read-out: Tmax IV) and 5.33 h in data set [3] (oral, read-out: Tmax PO). In addition, the values for the half-life in data set [3] (setting [5]) and in data set [3] (setting [6]) were 4.78 h and 4.08 h, respectively. Besides, the bioavailability in data set [3] turned out to be 70.6%.
On to `CCc1cc2c(=O)c3c4ccc(C#N)cc4[nH]c3n(C3CCCC3)c2cc1N1CCN(C)CC1` [ALK-48, 5-Cyclopentyl-2-ethyl-3-(4-methylpiperazin-1-yl)-11-oxo-6,11-dihydro-5H-indolo[2,3-b]quinoline-8-carbonitrile], for which the IC50 came out at 70 nM in data set [1] (NPM-ALK, 96 h); 84 nM in data set [1]; 15.1 nM in data set [2].
Consider `CCc1cc2c(=O)c3c4ccc(C#N)cc4[nH]c3n(C(C)C)c2cc1C1CCNCC1` [CJ-2204, 2-Ethyl-5-isopropyl-11-oxo-3-(piperidin-4-yl)-6,11-dihydro-5H-indolo[2,3-b]quinoline-8-carbonitrile], for which the IC50 in data set [1] (NPM-ALK, 96 h) came to 768 nM; in data set [2], 0.26 nM.
Consider `COc1cc2c(=O)c3c4ccc(C#N)cc4[nH]c3n(C(C)C)c2cc1N1CCC(N2CCOCC2)CC1` [ALK-25, 5-isoPropyl-2-methoxy-3-(4-morpholinopiperidin-1-yl)-11-oxo-6,11-dihydro-5H-indolo[2,3-b]quinoline-8-carbonitrile], for which the IC50 turned out to be 137 nM in data set [1] (NPM-ALK, 96 h) and 17.8 nM in data set [2].
Regarding `COc1cc2c(=O)c3c4ccc(C#N)cc4[nH]c3n(C(C)C)c2c(F)c1C1CCN(C2CCOCC2)CC1` [CJ-2226, 4-Fluoro-5-isopropyl-2-methoxy-11-oxo-3-(1-(tetrahydro-2H-pyran-4-yl)piperidin-4-yl)-6,11-dihydro-5H-indolo[2,3-b]quinoline-8-carbonitrile], the AUC(0-t) was 1000 ng·h/mL in data set [3] (setting [4]) and 2370 ng·h/mL in data set [3] (oral, read-out: AUC0-t PO). The Cmax in data set [3] (intravenous, read-out: Cmax IV) was found to be 296 ng/mL; in data set [3] (oral, read-out: Cmax PO) it was 230 ng/mL. Moreover, the Tmax in data set [3] (intravenous, read-out: Tmax IV) amounted to 0.083 h; in data set [3] (oral, read-out: Tmax PO) it was 4.67 h. The figures for the half-life in data set [3] (setting [5]) and in data set [3] (setting [6]) were 4.37 h and 4.99 h, respectively. The bioavailability in data set [3] came out at 47.3%.
Regarding `CCc1cc2c(=O)c3c4ccc(C#N)cc4[nH]c3n(CC)c2cc1N1CCN(C)CC1` [ALK-49, 2,5-Diethyl-3-(4-methylpiperazin-1-yl)-11-oxo-6,11-dihydro-5H-indolo[2,3-b]quinoline-8-carbonitrile], the half-inhibitory concentration (IC50) was 317 nM in data set [1] (NPM-ALK, 96 h); 546 nM in data set [1]; 1.9 nM and 2.8 nM in data set [2].
As for `COc1cc2c(=O)c3c4ccc(C#N)cc4[nH]c3n(C)c2cc1N1CCC(N2CCOCC2)CC1` [ALK-22, 2-Methoxy-5-methyl-3-(4-morpholinopiperidin-1-yl)-11-oxo-6,11-dihydro-5H-indolo[2,3-b]quinoline-8-carbonitrile], the IC50 came out at 90.3 nM in data set [1] (NPM-ALK, 96 h) and 661 nM in data set [2].
As for `COc1cc2c(=O)c3c4ccc(C#N)cc4[nH]c3n(C(C)C)c2c(F)c1C1CCN(C(C)C)CC1` [CJ-2225, 4-Fluoro-5-isopropyl-3-(1-isopropylpiperidin-4-yl)-2-methoxy-11-oxo-6,11-dihydro-5H-indolo[2,3-b]quinoline-8-carbonitrile], the AUC(0-t) in data set [3] (setting [4]) amounted to 1110 ng·h/mL; in data set [3] (oral, read-out: AUC0-t PO), 2340 ng·h/mL. The Cmax in data set [3] (intravenous, read-out: Cmax IV) was found to be 212 ng/mL; in data set [3] (oral, read-out: Cmax PO) it was 225 ng/mL. Also, the Tmax in data set [3] (intravenous, read-out: Tmax IV) was determined as 0.222 h; in data set [3] (oral, read-out: Tmax PO), 5.33 h. The half-life in data set [3] (setting [5]) is 4.54 h; in data set [3] (setting [6]), 4.31 h. Besides, the bioavailability in data set [3] was determined as 41.7%.
`CCc1cc2c(=O)c3c4ccc(C#N)cc4[nH]c3n(C3CCC3)c2cc1N1CCN(C)CC1` [ALK-45, 5-cyclobutyl-2-ethyl-3-(4-methylpiperazin-1-yl)-11-oxo-6,11-dihydro-5H-indolo[2,3-b]quinoline-8-carbonitrile]: the IC50 in data set [1] (NPM-ALK, 96 h) is 35 nM; in data set [1], 62 nM; in data set [2], 1.8 nM and 5.1 nM.
Turning to `C=Cc1cc2c(=O)c3c4ccc(C#N)cc4[nH]c3n(C(C)C)c2cc1N1CCN(C)CC1` [ALK-46, 5-isoPropyl-3-(4-methylpiperazin-1-yl)-11-oxo-2-vinyl-6,11-dihydro-5H-indolo[2,3-b]quinoline-8-carbonitrile], the IC50 was 60 nM in data set [1] (NPM-ALK, 96 h); 102 nM in data set [1]; 1.8 nM and 1.5 nM in data set [2].
As to `COc1cc2c(=O)c3c4ccc(C#N)cc4[nH]c3n(CC(C)(C)C)c2cc1N1CCN(C)CC1` [ALK-43, 2-Methoxy-3-(4-methylpiperazin-1-yl)-5-neopentyl-11-oxo-6,11-dihydro-5H-indolo[2,3-b]quinoline-8-carbonitrile], the IC50 in data set [1] (NPM-ALK, 96 h) stood at 266 nM; in data set [1], 261 nM; in data set [2], 28.5 nM.
For `C=C(C)c1cc2c(=O)c3c4ccc(C#N)cc4[nH]c3n(C(C)C)c2cc1N1CCN(C)CC1` [ALK-51, 5-isoPropyl-3-(4-methylpiperazin-1-yl)-11-oxo-2-(prop-1-en-2-yl)-6,11-dihydro-5H-indolo[2,3-b]quinoline-8-carbonitrile], the IC50 was determined as 70 nM in data set [1] (NPM-ALK, 96 h); 99 nM in data set [1]; 20.5 nM in data set [2].
In the case of `COc1cc2c(=O)c3c4ccc(C#N)cc4[nH]c3n(C(C)C)c2c(F)c1C1CCN(C2COC2)CC1` [CJ-2224, 4-Fluoro-5-isopropyl-2-methoxy-3-(1-(oxetan-3-yl)piperidin-4-yl)-11-oxo-6,11-dihydro-5H-indolo[2,3-b]quinoline-8-carbonitrile], the AUC(0-t) in data set [3] (setting [4]) was 2340 ng·h/mL; in data set [3] (oral, read-out: AUC0-t PO), 9640 ng·h/mL. For the same compound, the Cmax in data set [3] (intravenous, read-out: Cmax IV) was found to be 959 ng/mL; in data set [3] (oral, read-out: Cmax PO), 1170 ng/mL. Also, the time to peak (Tmax) in data set [3] (intravenous, read-out: Tmax IV) amounted to 0.083 h; in data set [3] (oral, read-out: Tmax PO), 0.67 h. The half-life in data set [3] (setting [5]) was 4.71 h; in data set [3] (setting [6]), 3.86 h. Moreover, the bioavailability in data set [3] stood at 81.5%.
As to `CC(C)n1c2cc(N3CCN(C)CC3)c(OC(F)F)cc2c(=O)c2c3ccc(C#N)cc3[nH]c21` [ALK-59, 2-(Difluoromethoxy)-5-isopropyl-3-(4-methylpiperazin-1-yl)-11-oxo-6,11-dihydro-5H-indolo[2,3-b]quinoline-8-carbonitrile], the IC50 in data set [1] (NPM-ALK, 96 h) is 447 nM; in data set [2] it was 1.6 nM.
